Test results taken from patent US4056615A, “Lucknomycin and process for producing same” (U C B Societe Anonyme, priority 1975, dated 1977).
≈ marks a conversion by molar mass, not a printed value. Entries after “also recorded” stand apart in the source; their conditions may differ. Read-outs that look alike come from different tables or passages of the source.

Key:
Aspergillus niger = assay: MIC, complete inhibition of growth, Aspergillus niger; type: cell-based
Procedure: (§1) Lucknomycin is introduced at different dilutions into a peptonedextrose medium inoculated with the organism which is to be tested. After incubation for from 2 to 5 days at 28° C., the number of microgrammes of antibiotic per milliliter of medium is determined which must be used to obtain complete inhibition of growth (MIC) of the organism in question. In order to better point out the antifungal activity of Lucknomycin, it is compared with that of other known antifungal antibiotics.

Candida albicans 11651 = assay: MIC, complete inhibition of growth, Candida albicans 11651; type: cell-based
Procedure: as §1

Trichomoras vaginalis = assay: MIC, complete inhibition of growth, Trichomonas vaginalis; type: cell-based
Procedure: as §1

Trichomonas vaginalis [1] = assay: Anti-Trichomonas vaginalis activity, subcutaneous Trichomonas vaginalis abscess in mice; type: in vivo; conditions: subcutaneous injections at the level of the abscess
From the text: This test is made in mice on a subcutaneous Trichomonas vaginalis abscess. Subcutaneous injections at the level of the abscess of a suspension (or solution) of the following products at various concentrations are used to determine the ED50.

Escherichia coli = assay: Antibacterial spectrum, Escherichia coli; type: cell-based; conditions: 10 mcg/ml, one day at 37° C.
Procedure: as §1
(§2) The experimental conditions are the same as for the determination of the fungal spectrum, except that the incubation time is one day at 37° C.

Solubility = type: physicochemical
Candida albicans = assay: Anti-Candida albicans activity, experimental Candida albicans vaginitis in female rats; type: in vivo; conditions: per tablet: lucknomycin 5 mg., clotrimazole 20 mg., nystatin 4 mg.
From the text: The test is made in female rats on experimental Candida albicans vaginitis.

Proteus mirabilis = assay: Antibacterial spectrum, Proteus mirabilis; type: cell-based; conditions: 10 mcg/ml, one day at 37° C.
Procedure: as §1, §2

[2] = system: Trichophyton mentagrophytes; assay: MIC, complete inhibition of growth, Trichophyton mentagrophytes; type: cell-based; conditions: for MIC: peptone-dextrose medium, 2 to 5 days at 28° C.
Procedure: as §1

mice = assay: Toxicity, lethal dose LD50 in mice; type: in vivo
From the text: Lethal dose LD50 in mice in mg./kg. body weight:

Candida tropicalis = assay: MIC, complete inhibition of growth, Candida tropicalis; type: cell-based
Procedure: as §1

[3] = system: Lactobacillus acidophilus; assay: Antibacterial spectrum, Lactobacillus acidophilus; type: cell-based; conditions: 10 mcg/ml, one day at 37° C.
Procedure: as §1, §2

Candida krusei = assay: MIC, complete inhibition of growth, Candida krusei; type: cell-based
Procedure: as §1

Pseudomonas aeruginosa = assay: Antibacterial spectrum, Pseudomonas aeruginosa; type: cell-based; conditions: 10 mcg/ml, one day at 37° C.
Procedure: as §1, §2

Trichophyton acuminatum = assay: MIC, complete inhibition of growth, Trichophyton acuminatum; type: cell-based; conditions: for MIC: peptone-dextrose medium, 2 to 5 days at 28° C.
Procedure: as §1

Trichomonas vaginalis [4] = assay: Antiprotozoal activity, killing of a culture in full growth of Trichomonas vaginalis; type: cell-based; conditions: 0.5 mcg./ml.; within about 30 minutes
Procedure: A concentration of 0.5 mcg./ml. of the antibiotic kills 50% of individuals of a culture in full growth of Trichomonas vaginalis within a period of about 30 minutes.

Staphylococcus aureus = assay: Antibacterial spectrum, Staphylococcus aureus; type: cell-based; conditions: 10 mcg/ml, one day at 37° C.
Procedure: as §1, §2

Streptococcus faecalis = assay: Antibacterial spectrum, Streptococcus faecalis; type: cell-based; conditions: 10 mcg/ml, one day at 37° C.
Procedure: as §1, §2

Klebsiella pneumoniae = assay: Antibacterial spectrum, Klebsiella pneumoniae; type: cell-based; conditions: 10 mcg/ml, one day at 37° C.
Procedure: as §1, §2

[5] = peptone-dextrose medium, 2 to 5 days at 28° C.
[6] = Candida albicans 11651, peptone-dextrose medium, 2 to 5 days at 28° C.
[7] = peptone-dextrose medium, 2 to 5 days at 28° C., read-out: MIC

In the case of `C[C@@H]1[C@H](O)[C@@H](C)/C=C/C=C/C=C/C=C/C=C/C=C/C=C/[C@H](O[C@@H]2O[C@H](C)[C@@H](O)[C@H](N)[C@@H]2O)C[C@@H]2O[C@](O)(C[C@@H](O)C[C@@H](O)[C@H](O)CC[C@@H](O)C[C@@H](O)CC(=O)O[C@H]1C)C[C@H](O)[C@H]2C(=O)O` [Amphotericin B], the MIC (Aspergillus niger) is reported as 0.6 µg/mL (≈ 0.649 µM), the MIC (Candida albicans 11651; Candida albicans, 11651) is reported as 1.25 µg/mL (≈ 1.35 µM) and the MIC (Trichomoras vaginalis) is reported as > 10 µg/mL.

In the case of `CNc1ccc(C(=O)CC(O)C2C/C=C/C=C/C=C/C=C/C=C/C=C/C=C/C(OC3OC(C)C(O)C(N)C3O)CC(O)C(C(=O)O)C(O)CC(O)CC(O)CC(O)CC(O)CC(O)CC(O)CC(O)CC(=O)O2)cc1` (centres unmarked) [Lucknomycin], the “ED50 on Trichomonas vaginalis” value (Trichomonas vaginalis [1]) is reported as 12 µg/mL (≈ 11.3 µM), the inhibiting activity (Escherichia coli) is reported as “inactive; also recorded: does not exert an inhibiting activity” and the Solubility (Solubility; in 60% methanol, concentrated ethanol (ethanol) and isopropanol) is reported as “less soluble”. For the same molecule, the Solubility (Solubility; in benzene, acetone, water, chloroform, absolute ethanol, cyclohexane, ethyl acetate and diethyl ether) was “insoluble”, the Solubility (Solubility; in pyridine, dimethylformamide and dimethylacetamide) was “soluble” and the “Number of cured rats/infested rats” value (Candida albicans; after 4 administrations) was 14/16. The “Number of cured rats/infested rats” value (Candida albicans; after 8 administrations) was 13/13, the “Number of cured rats/infested rats” value (Candida albicans; after 12 administrations) was 12/12 and the inhibiting activity (Proteus mirabilis) was “inactive; also recorded: does not exert an inhibiting activity”. For the same molecule, the “activity (in words)” value [2] was “moderately active”, the MIC [2] was 25 µg/mL (≈ 23.6 µM) and the LD50 (mice; intraperitoneal) was 5-10 mg./kg. body weight. For the same molecule, the LD50 (mice; intravenous) was 10-20 mg./kg. body weight, the LD50 (mice; oral) was > 800 mg./kg. body weight and the LD50 (mice; subcutaneous) was > 800 mg./kg. body weight. For the same molecule, the “activity against growth (in words)” value (Candida tropicalis) was “effective”, the MIC (Candida tropicalis; [5]) was 0.1 to 0.2 µg/mL and the inhibiting activity [3] was “inactive; also recorded: does not exert an inhibiting activity”. The “activity against growth (in words)” value (Candida krusei) was “effective”, the MIC (Candida krusei; [5]) was 0.2 to 0.4 µg/mL and the “activity against growth (in words)” value (Aspergillus niger) was “effective”. The MIC (Aspergillus niger; [5]) was 0.5 µg/mL (≈ 0.471 µM), the inhibiting activity (Pseudomonas aeruginosa) was “inactive; also recorded: does not exert an inhibiting activity” and the “activity against growth (in words)” value (Candida albicans 11651; Candida albicans) was “effective”. For the same molecule, the MIC (Candida albicans 11651; [6]) was 0.1 to 0.2 µg/mL, the “activity (in words)” value (Trichophyton acuminatum) was “moderately active” and the MIC (Trichophyton acuminatum) was 12.5 µg/mL (≈ 11.8 µM). The “individuals of a culture in full growth killed” value (Trichomonas vaginalis [4]) was 50%, the inhibiting activity (Staphylococcus aureus) was “inactive; also recorded: does not exert an inhibiting activity” and the inhibiting activity (Streptococcus faecalis) was “inactive; also recorded: does not exert an inhibiting activity”. For the same molecule, the “activity (in words)” value (Trichomoras vaginalis) was “effective”, the MIC (Trichomoras vaginalis; [5]) was < 0.05 µg/mL and the inhibiting activity (Klebsiella pneumoniae) was “inactive; also recorded: does not exert an inhibiting activity”.

In the case of `Cc1ncc([N+](=O)[O-])n1CCO` [Metronidazole], the MIC (Trichomoras vaginalis; [7]) is reported as 0.5 µg/mL (≈ 2.92 µM).

With `C[C@@H]1[C@H](O)[C@@H](C)/C=C/C=C/CC/C=C/C=C/C=C/C=C/C(O[C@H]2O[C@H](C)[C@@H](O)[C@H](N)[C@@H]2O)CC2O[C@](O)(CC(O)C(O)CCC(O)CC(O)CC(O)CC(=O)O[C@H]1C)CC(O)C2C(=O)O` (some centres unmarked) [Nystatin, nystatin] the “Number of cured rats/infested rats” value (Candida albicans; after 4 administrations) was 5/11, the “Number of cured rats/infested rats” value (Candida albicans; after 8 administrations) was 8/11 and the “Number of cured rats/infested rats” value (Candida albicans; after 12 administrations) was 9/11. It also gave an MIC [2] of 25 µg/mL (≈ 27 µM), an MIC (Aspergillus niger; [5]) of 5 µg/mL (≈ 5.4 µM) and an MIC (Candida albicans 11651; [6]) of 2.5 µg/mL (≈ 2.7 µM). For the same molecule, the MIC (Trichophyton acuminatum) was 25 µg/mL (≈ 27 µM) and the MIC (Trichomoras vaginalis; [5]) was > 10 µg/mL.

For `C[C@@H]1C/C=C/C=C/C=C/C=C/[C@H](O[C@@H]2O[C@H](C)[C@@H](O)[C@H](N)[C@@H]2O)C[C@@H]2O[C@](O)(C[C@@H](O)C[C@H]3O[C@@H]3/C=C/C(=O)O1)C[C@H](O)[C@H]2C(=O)O` [Pimaricin], the MIC (Aspergillus niger; [7]) was 2.5 µg/mL (≈ 3.76 µM), the MIC (Candida albicans 11651; Candida albicans 11651, peptone-dextrose medium, 2 to 5 days at 28° C., read-out: MIC) was 5 µg/mL (≈ 7.51 µM) and the MIC (Trichomoras vaginalis; [7]) was > 10 µg/mL.

For `Clc1ccccc1C(c1ccccc1)(c1ccccc1)n1ccnc1` [clotrimazole], the “Number of cured rats/infested rats” value (Candida albicans; after 4 administrations) was 17/18, the “Number of cured rats/infested rats” value (Candida albicans; after 8 administrations) was 16/16 and the “Number of cured rats/infested rats” value (Candida albicans; after 12 administrations) was 17/17.

With Candicidin the “ED50 on Trichomonas vaginalis” value (Trichomonas vaginalis [1]) was 24 µg/mL.

In the case of Trichomycin, the “ED50 on Trichomonas vaginalis” value (Trichomonas vaginalis [1]) is reported as 43 µg/mL.
